Ten molecules from ChEMBL document CHEMBL3431459, “Roche carnitine palmitoyltransferase modulator screening data (supplementary data associated with the publication CHEMBL2216752)” can be followed below.

In brackets after ≈: the same amount, converted by molar mass. Some results are limits rather than exact numbers.

The target of series [1] is T1, Carnitine O-palmitoyltransferase 1, muscle isoform (Homo sapiens, UniProt Q92523).
T1 sequence (Q92523 whole entry): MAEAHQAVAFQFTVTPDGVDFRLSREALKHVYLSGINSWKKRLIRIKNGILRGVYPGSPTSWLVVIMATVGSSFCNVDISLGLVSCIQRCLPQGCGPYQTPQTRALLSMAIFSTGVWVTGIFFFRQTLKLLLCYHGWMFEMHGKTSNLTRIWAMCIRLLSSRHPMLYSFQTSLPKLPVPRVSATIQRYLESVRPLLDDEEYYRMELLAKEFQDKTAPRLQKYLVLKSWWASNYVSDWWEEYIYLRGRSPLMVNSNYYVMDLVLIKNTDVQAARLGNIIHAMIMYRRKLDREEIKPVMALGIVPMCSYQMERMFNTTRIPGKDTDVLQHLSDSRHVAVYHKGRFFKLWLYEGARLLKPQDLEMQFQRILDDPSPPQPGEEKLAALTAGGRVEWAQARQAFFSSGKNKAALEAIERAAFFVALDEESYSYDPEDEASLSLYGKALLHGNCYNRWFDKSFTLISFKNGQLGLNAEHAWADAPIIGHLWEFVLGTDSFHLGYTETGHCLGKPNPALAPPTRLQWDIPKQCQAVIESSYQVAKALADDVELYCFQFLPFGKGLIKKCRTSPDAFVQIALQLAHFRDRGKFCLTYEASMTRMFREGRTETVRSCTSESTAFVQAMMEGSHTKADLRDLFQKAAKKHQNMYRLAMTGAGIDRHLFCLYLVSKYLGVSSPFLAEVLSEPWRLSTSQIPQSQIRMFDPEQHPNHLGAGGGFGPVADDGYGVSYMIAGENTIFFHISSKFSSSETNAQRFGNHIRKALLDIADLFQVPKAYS
As to the kind of experiment: SUPPLEMENTARY: Inhibition of Carnitine palmitoyltransferase 1, muscle isoform. Further details: species or system Muscle tissue.

Series [2] has as its target T2, Carnitine O-palmitoyltransferase 1, liver isoform (Rattus norvegicus, UniProt P32198).
T2 sequence (P32198 whole entry): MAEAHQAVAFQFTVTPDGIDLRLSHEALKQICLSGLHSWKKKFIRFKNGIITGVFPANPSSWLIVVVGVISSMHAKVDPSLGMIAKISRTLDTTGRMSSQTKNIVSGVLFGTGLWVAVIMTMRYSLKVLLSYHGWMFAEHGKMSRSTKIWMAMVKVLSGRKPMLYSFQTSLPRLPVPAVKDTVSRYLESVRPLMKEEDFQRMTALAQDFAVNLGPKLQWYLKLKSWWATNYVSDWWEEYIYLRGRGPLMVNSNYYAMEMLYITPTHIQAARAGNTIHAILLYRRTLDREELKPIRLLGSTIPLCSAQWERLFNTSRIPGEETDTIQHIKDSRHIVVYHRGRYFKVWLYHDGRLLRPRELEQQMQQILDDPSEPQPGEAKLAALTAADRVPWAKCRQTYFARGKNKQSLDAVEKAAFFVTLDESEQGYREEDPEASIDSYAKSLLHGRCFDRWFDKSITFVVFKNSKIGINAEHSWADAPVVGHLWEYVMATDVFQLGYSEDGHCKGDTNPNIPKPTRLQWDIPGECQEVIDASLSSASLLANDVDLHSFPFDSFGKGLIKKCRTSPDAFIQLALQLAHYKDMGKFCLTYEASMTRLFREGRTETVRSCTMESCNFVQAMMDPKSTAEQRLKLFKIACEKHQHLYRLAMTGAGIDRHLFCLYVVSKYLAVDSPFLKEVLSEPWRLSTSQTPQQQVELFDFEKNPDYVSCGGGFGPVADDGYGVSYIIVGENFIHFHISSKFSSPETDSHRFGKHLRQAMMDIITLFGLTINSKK
As to the kind of experiment: (§1) SUPPLEMENTARY: Inhibition of Carnitine palmitoyltransferase 1, liver isoform.

In series [3] the target is T3, Carnitine O-palmitoyltransferase 1, liver isoform (Homo sapiens, UniProt P50416).
T3 sequence (P50416 whole entry): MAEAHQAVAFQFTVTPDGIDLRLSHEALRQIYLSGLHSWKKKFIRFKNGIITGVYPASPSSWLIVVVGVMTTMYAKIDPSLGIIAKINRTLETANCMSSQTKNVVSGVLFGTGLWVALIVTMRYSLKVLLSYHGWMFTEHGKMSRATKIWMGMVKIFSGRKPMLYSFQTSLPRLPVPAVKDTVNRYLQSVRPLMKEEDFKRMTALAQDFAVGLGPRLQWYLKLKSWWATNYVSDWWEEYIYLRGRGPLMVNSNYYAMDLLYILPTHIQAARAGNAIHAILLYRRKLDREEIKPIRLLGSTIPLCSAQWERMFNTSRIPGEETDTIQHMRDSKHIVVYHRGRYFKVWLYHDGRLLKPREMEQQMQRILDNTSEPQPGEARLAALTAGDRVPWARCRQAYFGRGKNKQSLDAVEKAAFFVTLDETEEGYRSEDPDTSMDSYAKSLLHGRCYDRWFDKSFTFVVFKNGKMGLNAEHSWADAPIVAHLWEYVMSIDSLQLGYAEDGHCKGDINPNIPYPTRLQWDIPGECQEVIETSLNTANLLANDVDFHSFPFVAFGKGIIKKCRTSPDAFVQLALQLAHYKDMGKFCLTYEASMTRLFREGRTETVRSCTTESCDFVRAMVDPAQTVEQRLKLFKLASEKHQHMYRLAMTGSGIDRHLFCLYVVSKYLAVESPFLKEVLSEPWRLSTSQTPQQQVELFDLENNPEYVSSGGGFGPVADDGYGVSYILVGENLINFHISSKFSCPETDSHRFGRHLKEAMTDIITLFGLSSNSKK
The series is described as §1.

Series [4] has as its target T4, Carnitine O-palmitoyltransferase 2, mitochondrial (Homo sapiens, UniProt P23786).
T4 sequence (P23786 whole entry): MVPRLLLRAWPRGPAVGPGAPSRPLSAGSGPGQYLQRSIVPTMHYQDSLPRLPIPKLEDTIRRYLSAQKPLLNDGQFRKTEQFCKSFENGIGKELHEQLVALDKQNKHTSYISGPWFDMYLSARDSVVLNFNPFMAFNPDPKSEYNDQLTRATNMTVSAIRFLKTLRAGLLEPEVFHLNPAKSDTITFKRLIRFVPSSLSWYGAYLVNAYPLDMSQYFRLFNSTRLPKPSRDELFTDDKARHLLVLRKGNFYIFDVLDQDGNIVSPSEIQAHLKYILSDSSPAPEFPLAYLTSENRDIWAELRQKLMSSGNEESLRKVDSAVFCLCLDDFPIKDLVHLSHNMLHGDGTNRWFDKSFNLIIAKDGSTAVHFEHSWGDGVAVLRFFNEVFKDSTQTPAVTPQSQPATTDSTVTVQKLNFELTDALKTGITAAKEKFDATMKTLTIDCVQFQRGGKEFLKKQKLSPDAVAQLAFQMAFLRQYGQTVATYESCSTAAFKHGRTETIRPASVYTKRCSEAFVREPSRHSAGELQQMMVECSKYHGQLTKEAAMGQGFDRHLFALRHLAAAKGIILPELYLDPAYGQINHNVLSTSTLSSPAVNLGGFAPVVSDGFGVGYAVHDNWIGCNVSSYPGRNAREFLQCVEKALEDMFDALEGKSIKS
The series can be described thus: (§2) SUPPLEMENTARY: Inhibition of Carnitine palmitoyltransferase 2.

The target in series [5] is T5, Carnitine O-palmitoyltransferase 2, mitochondrial (Rattus norvegicus, UniProt P18886).
T5 sequence (P18886 whole entry): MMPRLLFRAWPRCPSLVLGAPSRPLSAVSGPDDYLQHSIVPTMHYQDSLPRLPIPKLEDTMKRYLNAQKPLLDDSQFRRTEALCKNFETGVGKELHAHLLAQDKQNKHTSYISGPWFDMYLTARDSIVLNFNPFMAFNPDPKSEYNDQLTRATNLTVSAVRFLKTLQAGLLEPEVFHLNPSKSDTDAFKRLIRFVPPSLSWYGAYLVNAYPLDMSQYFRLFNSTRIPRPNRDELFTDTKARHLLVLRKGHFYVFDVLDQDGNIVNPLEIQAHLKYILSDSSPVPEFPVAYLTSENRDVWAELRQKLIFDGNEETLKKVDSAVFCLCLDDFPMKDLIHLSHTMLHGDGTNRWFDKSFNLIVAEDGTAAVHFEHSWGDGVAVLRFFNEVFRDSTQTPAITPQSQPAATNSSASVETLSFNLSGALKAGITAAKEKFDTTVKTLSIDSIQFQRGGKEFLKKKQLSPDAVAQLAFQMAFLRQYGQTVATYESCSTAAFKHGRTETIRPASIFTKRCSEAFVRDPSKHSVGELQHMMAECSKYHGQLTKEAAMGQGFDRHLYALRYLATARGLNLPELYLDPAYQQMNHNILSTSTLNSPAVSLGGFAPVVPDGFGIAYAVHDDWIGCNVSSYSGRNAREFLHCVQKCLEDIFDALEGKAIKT
Described as §2.

Series [6] can be described thus: SUPPLEMENTARY: PAMPA permeability assay. It is filed as physicochemical. Particulars: read-out: Permeability.
Series [7] can be described thus: SUPPLEMENTARY: Lipophilicity (log D) Determination by high-throughput shake-flask. It counts as physicochemical. Particulars: octanol/water.
Series [8] is described as follows: SUPPLEMENTARY: Lyophilisation Solubility Assay (LYSA). It counts as physicochemical. The settings on record: read-out: Kinetic_solubility.

As to `CCOC(=O)C1CN(S(=O)(=O)c2cc(Cl)ccc2OC)c2cc(C(=O)Nc3cccc(F)c3)ccc2O1` (stereo not given), the IC50 was more than 100 µM in series [1]; 0.339 µM in series [2]; 0.221 µM in series [3]; more than 100 µM in series [4]; more than 100 µM in series [5]. Further, the Papp in series [6] was 1.31 ×10⁻⁶ cm/s. Besides, the logD in series [7] came out at 3.58. The solubility kinetic in series [8] is less than 1 µg/mL.
In the case of `COc1ccc(Cl)cc1S(=O)(=O)c1c2cc(C(=O)Nc3ccc(C(=O)O)cc3)ccc2nn1C`, the IC50 was more than 100 µM in series [1]; 0.0563 µM in series [2]; 0.0601 µM in series [3]; more than 100 µM in series [4]; more than 100 µM in series [5]. Besides, in series [6], the Papp is 2.25 ×10⁻⁶ cm/s. Moreover, in series [7], the logD came to 2.41. The solubility kinetic in series [8] worked out at 36 µg/mL (≈ 72 µM).
Regarding `COc1ccc(Cl)cc1S(=O)(=O)N1CC(C(=O)O)Oc2ccc(C(=O)Nc3ccccc3F)cc21` (stereo not given), the concentration for half-maximal inhibition (IC50) in series [1] is more than 100 µM; in series [2] it was 0.169 µM; in series [3] it was 0.218 µM; in series [4] it was more than 100 µM; in series [5], more than 100 µM. The Papp in series [6] was 0.38 ×10⁻⁶ cm/s. The molecule further displayed a logD in series [7] of -0.49. Moreover, the solubility kinetic in series [8] was more than 617 µg/mL.
Turning to `COc1ccc(Cl)cc1S(=O)(=O)N1CC(C(=O)O)Oc2ccc(C(=O)Nc3ccc(F)cc3)cc21` (stereo not given), the IC50 is 99.9 µM in series [1]; 0.131 µM in series [2]; 0.0809 µM in series [3]; more than 100 µM in series [4]; more than 100 µM in series [5]. Moreover, the Papp in series [6] was 0.06 ×10⁻⁶ cm/s. In series [7], this molecule showed a logD of -0.22. The solubility kinetic in series [8] worked out at 347 µg/mL (≈ 666 µM).
Turning to `O=C(O)c1ccc(NC(=O)c2ccc3c(c2)N(S(=O)(=O)c2cccc(Cl)c2)CCS3(=O)=O)cc1`, the IC50 was determined as 15.5 µM in series [1]; 0.0395 µM in series [2]; 0.0542 µM in series [3]; 5.44 µM in series [4]; 20.8 µM in series [5]. For the same molecule, in series [6], the Papp worked out at 0.86 ×10⁻⁶ cm/s. Also, in series [7], the log distribution coefficient (logD) was determined as 0.25. In series [8], the solubility kinetic is more than 626 µg/mL.
For `Cc1cc(C)cc(S(=O)(=O)N2CCS(=O)(=O)c3ccc(C(=O)Nc4ccc(C(=O)O)cc4)cc32)c1`, the half-inhibitory concentration (IC50) in series [1] was 5.3 µM; in series [2], 0.0181 µM; in series [3] it was 0.031 µM; in series [4], 2.8 µM; in series [5] it was 10.5 µM. Moreover, the Papp in series [6] turned out to be 1.95 ×10⁻⁶ cm/s. The logD in series [7] was 0.55. Further, the solubility kinetic in series [8] worked out at 481 µg/mL (≈ 935 µM).
In the case of `O=C1CN(c2cccc(-c3n[nH]c([C@H]4CCCCN4C(=O)COc4ccccc4)n3)c2)C(=O)N1`, the IC50 in series [1] stood at 61.8 µM; in series [2], 0.15 µM; in series [3] it was 0.0968 µM; in series [4] it was 23.5 µM; in series [5], 56.9 µM. In series [6], the Papp was determined as 1.92 ×10⁻⁶ cm/s. The molecule further came in with a logD in series [7] of 2.16. Further, the solubility kinetic in series [8] turned out to be 54 µg/mL (≈ 117 µM).
For the molecule `COc1ccc(Cl)cc1S(=O)(=O)c1nn(C)c2ccc(C(=O)Nc3ccc(CC(=O)O)cc3)cc12`, the IC50 in series [1] was 1.73 µM; in series [2], 0.125 µM; in series [3] it was 0.166 µM; in series [4], more than 100 µM; in series [5], more than 100 µM. Further, the Papp in series [6] came to 0.39 ×10⁻⁶ cm/s. For the same molecule, the logD in series [7] was 0.12. The solubility kinetic in series [8] worked out at 70 µg/mL (≈ 136 µM).
Consider `Cc1cc(C)cc(S(=O)(=O)N2CCSc3ccc(C(=O)Nc4ccc(C(=O)O)cc4)cc32)c1`, for which the IC50 in series [1] was 2.68 µM; in series [2], 0.026 µM; in series [3], 0.051 µM; in series [4] it was 1.58 µM; in series [5], 2.62 µM. Also, the Papp in series [6] is 1.79 ×10⁻⁶ cm/s. The molecule further had a logD in series [7] of 1.75. Moreover, in series [8], the solubility kinetic amounted to 125 µg/mL (≈ 259 µM).
In the case of `O=C(O)c1ccc(NC(=O)c2ccc3c(c2)N(S(=O)(=O)c2cccc(Cl)c2)CCS3)cc1`, the IC50 in series [1] amounted to 7.33 µM; in series [2], 0.043 µM; in series [3], 0.0822 µM; in series [4] it was 1.95 µM; in series [5], 5.64 µM. For the same molecule, the Papp in series [6] was found to be 2.81 ×10⁻⁶ cm/s. Besides, the logD in series [7] turned out to be 1.48. In addition, in series [8], the solubility kinetic was 20 µg/mL (≈ 40.9 µM).
